Measured values reported in publication PMC11406233 (Proceedings of the National Academy of Sciences of the …, 2024).
Like-named read-outs stand apart in the source and are kept apart here.

How the values were obtained:
SCoV2^WK521WT [1] = test: microbe, parasite or virus in culture; type: cell-based; conditions: for EC50: Severe acute respiratory syndrome coronavirus 2, read-out: EC50 from cell-based assay
SCoV2^WK521WT [2] = test: microbe, parasite or virus in culture; conditions: Severe acute respiratory syndrome coronavirus 2, VeroE6/TMPRSS2, read-out: EC50 from cell-based assay

Q: `CC(C)(C)[C@H](NC(=O)C(F)(F)F)C(=O)N1C[C@H]2[C@@H]([C@H]1C(=O)N[C@H](C#N)C[C@@H]1CCNC1=O)C2(C)C` [nirmatrelvir, reference compound] was tested. Which EC50 (SCoV2^WK521WT [1]) did it give?
A: The EC50 was 52 nM.

Q: And the EC50 (SCoV2^WK521WT [2])?
A: Its EC50 is 1500 nM.

Q: How did the EC50 (SCoV2^WK521WT [1]) turn out when `COc1cccc2[nH]c(C(=O)N[C@@H](CC(C)C)C(=O)N[C@@H](C[C@@H]3CCNC3=O)C(=O)c3nc4ccccc4s3)cc12` [5h] was run?
A: Its EC50 is 200 ± 90 nM.

Q: What about the EC50 (SCoV2^WK521WT [2]) of the same molecule?
A: Its EC50 is 4100 nM.

Q: With `CC(C)(C)[C@H](NC(=O)C(F)(F)F)C(=O)N1C[C@H]2[C@@H]([C@H]1C(=O)N[C@@H](C[C@@H]1CCNC1=O)C(=O)c1nc3c(F)cccc3s1)C2(C)C` [TKB245] as the molecule, how does the “Difference in the EC50 values of NIR and TKB245” value (SCoV2^WK521WT [1]) read?
A: The value was 34.7 fold.

Q: And the EC50 (SCoV2^WK521WT [1])?
A: The EC50 was 1.5 nM.

Q: And the EC50 (SCoV2^WK521WT [2])?
A: Its EC50 is 330 nM.
